Results as given in PMC6220303 (EMBO Molecular Medicine, 2018).

Tested on: healthy participants ≥ 60 years
Experiment: Adverse events after 3 months daily dosing (Appendix Table S8)
Type: in vivo, human
Protocol: For further details, see the Appendix Table S10 in Appendix and the accompanying clinical protocols synopsis (Appendix Table S11).
Randomized, double-blind, placebo-controlled, parallel-group study to assess the safety, Multiple-dose over 13-tolerability, pharmacokinetics ≥ 60 yrs 100 / 24 weeks (2, 10, 35 or 85 mg and pharmacodynamics of q.d. CNP520 vs. placebo) multiple oral doses of CNP520 in healthy elderly participants
Title A randomized, double-blind, placebo-controlled, parallel-group study to assess the safety, tolerability, pharmacokinetics and pharmacodynamics of multiple oral doses of CNP520 in healthy elderly subjects
Brief title Dose-ranging safety and tolerability study in subjects ≥60 years of age Sponsor and Clinical Novartis
Study type Interventional […]
rationale months to allow initiation future long-term efficacy trials in patients with Alzheimer’s disease (AD) or in subjects at risk of AD. In addition, data relevant for Pharmacokinetic/Pharmacodynamic modeling will be obtained in order to define the target dose in subsequent efficacy studies.
Primary Objective(s) To determine the safety and tolerability of multiple, once-daily oral doses of […]
Secondary • To assess the change from baseline of CSF Aβ concentrations (Aβ1-Objectives 38; Aβ1-40; Aβ1-42) in healthy elderly subjects over 13 weeks treatment with CNP520 as compared to placebo

C[C@@]1(c2nc(NC(=O)c3ncc(C(F)(F)F)cc3Cl)ccc2F)CO[C@@](C)(C(F)(F)F)C(N)=N1 [CNP520]
AE incidence: Blood and lymphatic system disorders (2 mg daily, N = 25): 0 (0.0) n (%)
AE incidence: Ear and labyrinth disorders (2 mg daily, N = 25): 0 (0.0) n (%)
AE incidence: Eye disorders (2 mg daily, N = 25): 2 (8.0) n (%)
AE incidence: Gastrointestinal disorders (2 mg daily, N = 25): 7 (28.0) n (%)
AE incidence: General disorders and administration site conditions (2 mg daily, N = 25): 1 (4.0) n (%)
AE incidence: Immune system disorders (2 mg daily, N = 25): 0 (0.0) n (%)
AE incidence: Infections and infestations (2 mg daily, N = 25): 3 (12.0) n (%)
AE incidence: Injury, poisoning and procedural complications (2 mg daily, N = 25): 7 (28.0) n (%)
AE incidence: Investigations (2 mg daily, N = 25): 2 (8.0) n (%)
AE incidence: Metabolism and nutrition disorders (2 mg daily, N = 25): 1 (4.0) n (%)
AE incidence: Neoplasms benign, malignant & unspecified (incl. cysts and polyps) (2 mg daily, N = 25): 1 (4.0) n (%)
AE incidence: Nervous system disorders (2 mg daily, N = 25): 13 (52.0) n (%)
AE incidence: Psychiatric disorders (2 mg daily, N = 25): 1 (4.0) n (%)
AE incidence: Renal and urinary disorders (2 mg daily, N = 25): 0 (0.0) n (%)
AE incidence: Reproductive system and breast disorders (2 mg daily, N = 25): 0 (0.0) n (%)
AE incidence: Respiratory, thoracic and mediastinal disorders (2 mg daily, N = 25): 6 (24.0) n (%)
AE incidence: Skin and subcutaneous tissue disorders (2 mg daily, N = 25): 3 (12.0) n (%)
AE incidence: Vascular disorders (2 mg daily, N = 25): 0 (0.0) n (%)
Participants with at least one AE (2 mg daily, N = 25): 19 (76.0) n (%)
AE incidence: Blood and lymphatic system disorders (10 mg daily, N = 25): 0 (0.0) n (%)
AE incidence: Ear and labyrinth disorders (10 mg daily, N = 25): 1 (4.0) n (%)
AE incidence: Eye disorders (10 mg daily, N = 25): 5 (20.0) n (%)
AE incidence: Gastrointestinal disorders (10 mg daily, N = 25): 9 (36.0) n (%)
AE incidence: General disorders and administration site conditions (10 mg daily, N = 25): 2 (8.0) n (%)
AE incidence: Immune system disorders (10 mg daily, N = 25): 0 (0.0) n (%)
AE incidence: Infections and infestations (10 mg daily, N = 25): 10 (40.0) n (%)
AE incidence: Injury, poisoning and procedural complications (10 mg daily, N = 25): 11 (44.0) n (%)
AE incidence: Investigations (10 mg daily, N = 25): 0 (0.0) n (%)
AE incidence: Metabolism and nutrition disorders (10 mg daily, N = 25): 1 (4.0) n (%)
AE incidence: Neoplasms benign, malignant & unspecified (incl. cysts and polyps) (10 mg daily, N = 25): 1 (4.0) n (%)
AE incidence: Nervous system disorders (10 mg daily, N = 25): 10 (40.0) n (%)
AE incidence: Psychiatric disorders (10 mg daily, N = 25): 2 (8.0) n (%)
AE incidence: Renal and urinary disorders (10 mg daily, N = 25): 2 (8.0) n (%)
AE incidence: Reproductive system and breast disorders (10 mg daily, N = 25): 2 (8.0) n (%)
AE incidence: Respiratory, thoracic and mediastinal disorders (10 mg daily, N = 25): 6 (24.0) n (%)
AE incidence: Skin and subcutaneous tissue disorders (10 mg daily, N = 25): 7 (28.0) n (%)
AE incidence: Vascular disorders (10 mg daily, N = 25): 2 (8.0) n (%)
Participants with at least one AE (10 mg daily, N = 25): 22 (88.0) n (%)
AE incidence: Blood and lymphatic system disorders (35 mg daily, N = 26): 1 (3.8) n (%)
AE incidence: Ear and labyrinth disorders (35 mg daily, N = 26): 1 (3.8) n (%)
AE incidence: Eye disorders (35 mg daily, N = 26): 0 (0.0) n (%)
AE incidence: Gastrointestinal disorders (35 mg daily, N = 26): 9 (34.6) n (%)
AE incidence: General disorders and administration site conditions (35 mg daily, N = 26): 4 (15.4) n (%)
AE incidence: Immune system disorders (35 mg daily, N = 26): 0 (0.0) n (%)
AE incidence: Infections and infestations (35 mg daily, N = 26): 6 (23.1) n (%)
AE incidence: Injury, poisoning and procedural complications (35 mg daily, N = 26): 10 (38.5) n (%)
AE incidence: Investigations (35 mg daily, N = 26): 1 (3.8) n (%)
AE incidence: Metabolism and nutrition disorders (35 mg daily, N = 26): 0 (0.0) n (%)
AE incidence: Neoplasms benign, malignant & unspecified (incl. cysts and polyps) (35 mg daily, N = 26): 0 (0.0) n (%)
AE incidence: Nervous system disorders (35 mg daily, N = 26): 9 (34.6) n (%)
AE incidence: Psychiatric disorders (35 mg daily, N = 26): 1 (3.8) n (%)
AE incidence: Renal and urinary disorders (35 mg daily, N = 26): 2 (7.7) n (%)
AE incidence: Reproductive system and breast disorders (35 mg daily, N = 26): 0 (0.0) n (%)
AE incidence: Respiratory, thoracic and mediastinal disorders (35 mg daily, N = 26): 5 (19.2) n (%)
AE incidence: Skin and subcutaneous tissue disorders (35 mg daily, N = 26): 2 (7.7) n (%)
AE incidence: Vascular disorders (35 mg daily, N = 26): 0 (0.0) n (%)
Participants with at least one AE (35 mg daily, N = 26): 21 (80.8) n (%)
AE incidence: Blood and lymphatic system disorders (85 mg daily, N = 24): 0 (0.0) n (%)
AE incidence: Ear and labyrinth disorders (85 mg daily, N = 24): 1 (4.2) n (%)
AE incidence: Eye disorders (85 mg daily, N = 24): 4 (16.7) n (%)
AE incidence: Gastrointestinal disorders (85 mg daily, N = 24): 4 (16.7) n (%)
AE incidence: General disorders and administration site conditions (85 mg daily, N = 24): 5 (20.8) n (%)
AE incidence: Immune system disorders (85 mg daily, N = 24): 1 (4.2) n (%)
AE incidence: Infections and infestations (85 mg daily, N = 24): 4 (16.7) n (%)
AE incidence: Injury, poisoning and procedural complications (85 mg daily, N = 24): 8 (33.3) n (%)
AE incidence: Investigations (85 mg daily, N = 24): 1 (4.2) n (%)
AE incidence: Metabolism and nutrition disorders (85 mg daily, N = 24): 0 (0.0) n (%)
AE incidence: Neoplasms benign, malignant & unspecified (incl. cysts and polyps) (85 mg daily, N = 24): 0 (0.0) n (%)
AE incidence: Nervous system disorders (85 mg daily, N = 24): 8 (33.3) n (%)
AE incidence: Psychiatric disorders (85 mg daily, N = 24): 2 (8.3) n (%)
AE incidence: Renal and urinary disorders (85 mg daily, N = 24): 1 (4.2) n (%)
AE incidence: Reproductive system and breast disorders (85 mg daily, N = 24): 0 (0.0) n (%)
AE incidence: Respiratory, thoracic and mediastinal disorders (85 mg daily, N = 24): 5 (20.8) n (%)
AE incidence: Skin and subcutaneous tissue disorders (85 mg daily, N = 24): 6 (25.0) n (%)
AE incidence: Vascular disorders (85 mg daily, N = 24): 1 (4.2) n (%)
Participants with at least one AE (85 mg daily, N = 24): 18 (75.0) n (%)
AE incidence: Blood and lymphatic system disorders (all doses, N = 100): 1 (1.0) n (%)
AE incidence: Ear and labyrinth disorders (all doses, N = 100): 3 (3.0) n (%)
AE incidence: Eye disorders (all doses, N = 100): 11 (11.0) n (%)
AE incidence: Gastrointestinal disorders (all doses, N = 100): 29 (29.0) n (%)
AE incidence: General disorders and administration site conditions (all doses, N = 100): 12 (12.0) n (%)
AE incidence: Immune system disorders (all doses, N = 100): 1 (1.0) n (%)
AE incidence: Infections and infestations (all doses, N = 100): 23 (23.0) n (%)
AE incidence: Injury, poisoning and procedural complications (all doses, N = 100): 36 (36.0) n (%)
AE incidence: Investigations (all doses, N = 100): 4 (4.0) n (%)
AE incidence: Metabolism and nutrition disorders (all doses, N = 100): 2 (2.0) n (%)
AE incidence: Neoplasms benign, malignant & unspecified (incl. cysts and polyps) (all doses, N = 100): 2 (2.0) n (%)
AE incidence: Nervous system disorders (all doses, N = 100): 40 (40.0) n (%)
AE incidence: Psychiatric disorders (all doses, N = 100): 6 (6.0) n (%)
AE incidence: Renal and urinary disorders (all doses, N = 100): 5 (5.0) n (%)
AE incidence: Reproductive system and breast disorders (all doses, N = 100): 2 (2.0) n (%)
AE incidence: Respiratory, thoracic and mediastinal disorders (all doses, N = 100): 22 (22.0) n (%)
AE incidence: Skin and subcutaneous tissue disorders (all doses, N = 100): 18 (18.0) n (%)
AE incidence: Vascular disorders (all doses, N = 100): 3 (3.0) n (%)
Participants with at least one AE (all doses, N = 100): 80 (80.0) n (%)
AE incidence: Musculoskeletal and connective tissue disorders (human, in vivo): 27 (27.0) n (%)
